Results on 70 molecules are retold here after article PMC7822874, “Chemoprotective antimalarials identified through quantitative high-throughput screening of Plasmodium blood and liver stage parasites” (Scientific Reports, 2021).

The test system of the assay is Plasmodium falciparum Dd2 asexual blood stage parasites. As to the kind of experiment: microbe, parasite or virus in culture. The note with it: Plasmodium falciparum, DD2, Erythrocyte, 72 h; read-out: AC50. The arrangement: species or system Plasmodium falciparum Dd2 in human erythrocytes; single determination (one 11-point concentration-response curve).
For the molecule `Cc1cccc(N2CCN(c3cccc(C)c3)C2c2cccnc2)c1` [MLS000105583-01], the AC50 (in general, the concentration at which the activity in the assay is half-maximal) came to 5.96 µM.

With `COc1ccc(NC(=O)c2ccc(-c3nnc4ccc(NC(=O)C5CC5)cn34)cc2)cc1` [NCGC00429845-01], the half-maximal activity concentration (AC50) was found to be 2.66 µM.

Turning to `COc1ccc(CCn2c(=N)c(C(=O)NCCN3CCOCC3)cc3c(=O)n4cccc(C)c4nc32)cc1OC` [MLS001146185-01], the AC50 was 13.3 µM.

On to `CCn1cc(CN2CCCC23CCN(c2cc(C)nc4ccccc24)CC3)c(C)n1` [NCGC00442249-01], for which the AC50 turned out to be 4.22 µM.

In the case of `O=C1NC(=O)/C(=C\c2ccc(N3CCOCC3)o2)N1` [MLS000724369-01], the half-maximal activity concentration (AC50) is 9.44 µM.

As to `COc1ccccc1CN1CCC(CNC(=O)c2cnn(-c3ccc(Cl)cc3)c2C2CCN(C(=O)OC(C)(C)C)CC2)CC1` [NCGC00126796-01], the AC50 is 2.66 µM.

`C[C@]1(CO)[C@H]2Cc3sc(NC(=O)c4cccc(F)c4)nc3[C@@H](CC(=O)N3CCOCC3)[C@]2(C)CC[C@H]1O` [NCGC00395198-01]: the AC50 is 8.41 µM.

Take `Cc1ccc(-c2nnc(Nc3ccc(O)cc3)c3ccccc23)cc1[S+](=O)([O-])N1CCN(C)CC1` [NCGC00099994-01]: the AC50 was found to be 6.68 µM.

Regarding `CC1=CC(C)(C)Nc2ccc(OC(=O)c3cccnc3)cc21` [MLS000111190-01], the AC50 worked out at 13.3 µM.

Regarding `Cn1nc(C(F)(F)F)c(-c2ccc(F)cc2)c1NC(=O)Nc1ccc(F)cc1` [MLS000830769-01], the AC50 was 1.88 µM.

Turning to `CCc1cccc2c(C(CC(=O)N3CCC(C)CC3)c3cccc(C)c3)c[nH]c12` (stereo not shown) [NCGC00473418-01], the AC50 was determined as 4.73 µM.

Consider `C#CCN(C)C(=O)C[C@@H]1c2nc(NC(=O)c3ccc(OC)cc3)sc2C[C@@H]2[C@](C)(CO)[C@H](O)CC[C@]21C` [NCGC00394313-01], for which the AC50 was determined as 2.66 µM.

`CCn1nnc(NC(=O)c2ccc(C(C)(C)C)cc2)n1` [MLS000035112-01]: the AC50 worked out at 9.44 µM.

As to `CCN(C(=O)Cn1c(=O)n(Cc2ccc3c(c2)OCO3)c(=O)c2ccc(C(=O)NC3CCCCC3)cc21)c1cccc(C)c1` [NCGC00108796-01], the AC50 amounted to 6.68 µM.

`O=C(c1ccccc1OCC1CCCN(Cc2ccncc2F)C1)N1CCCC1` (stereo not shown) [NCGC00427122-01]: the AC50 is 10.6 µM.

In the case of `CCN(c1ccccc1)[S+](=O)([O-])c1cc(Br)cc2c1N(C(=O)C1CC1)CC2` [NCGC00104258-01], the AC50 was determined as 2.99 µM.

Turning to `Cn1cc(CN2CCCC(COc3ccccc3C(=O)N3CCCC3)C2)c2ccccc21` (stereo not shown) [NCGC00427140-01], the AC50 came out at 9.44 µM.

As for `O=C(NCCCN1CCc2ccccc2C1)C1Cn2cccc2C(=O)N1Cc1ccccc1` (stereo not shown) [NCGC00456658-01], the AC50 came out at 9.44 µM.

Regarding `O=C1NCc2ccccc2CC12CCCCN2CC1CC=CCC1` (stereo not shown) [NCGC00377392-01], the AC50 amounted to 2.34 µM.

With `Cc1ccc(Nc2cc(C)nn2-c2nc(C)cc(C)n2)cc1` [MLS000048464-01], the AC50 came to 6.68 µM.

For `CCOc1cccc(CC(=O)Nc2ccc3nc(N4CCCCC4)cc(C)c3c2)c1OCC` [NCGC00137846-01], the AC50 is 6.68 µM.

As to `Cn1ccc(NCc2nnc(C(=O)N3CCC[C@@H]3C(c3ccccc3)c3ccccc3)n2-c2ccccc2)n1` [NCGC00415774-01], the AC50 is 1.33 µM.

Turning to `COc1cc2nc(NCc3ccc(C)cc3)n3nc(-c4ccccc4)nc3c2cc1OC` [NCGC00112855-01], the concentration at half-maximal activity (AC50) was found to be 0.266 µM.

As for `COc1cccc(Nc2ccc3c(n2)C(C)(C(=O)N2CCN(C)CC2)CN(C)C3)c1` (stereo not shown) [NCGC00414535-01], the AC50 amounted to 15.3 µM.

With `CC1(c2ccccc2)N(Cc2cccnc2)C(=O)OC12CCN(C(=O)Cc1ccc(Cl)cc1)CC2` (stereo not shown) [NCGC00415462-01], the AC50 turned out to be 13.3 µM.

In the case of `COCCOc1cc(-c2noc([C@@H]3CCCN3CC3CC3)n2)ccn1` [NCGC00394865-01], the AC50 is 15.3 µM.

With `CCOC(=O)C1CCCN(C(=O)c2ccc3c(c2)N(Cc2ccccc2)C(=O)c2ccccc2[S+]3(=O)[O-])C1` (stereo not shown) [NCGC00109839-01], the AC50 was 6.68 µM.

For the molecule `CCc1c(C)[nH]c2ccccc2c1=O` [MLS000030676-01], the AC50 turned out to be 10.6 µM.

Take `CCCCn1cc(C(=O)c2cc(Br)ccc2O)cc(C#N)c1=O` [MLS000568063-01]: the concentration at half-maximal activity (AC50) turned out to be 13.3 µM.

Consider `CCOc1cc(C(=O)N2CCc3c([nH]c4ccccc34)C2c2ccccc2)cc(OCC)c1OCC` (stereo not shown) [NCGC00134525-01], for which the AC50 came to 7.5 µM.

For `COc1ccc(-c2c(C#Cc3ccsc3)c3cc(-c4cccc5[nH]ccc45)ccc3n2C)cc1` [MLS002391587-01], the AC50 was determined as 6.68 µM.

As for `O=C(NCCc1c[nH]c2ccccc12)[C@@H]1C[C@H]2C(=O)NCCCCCCN(C(=O)c3ccco3)[C@H]2C1` [NCGC00465014-01], the AC50 stood at 10.6 µM.

In the case of `N#Cc1ccc(CN2CC[C@@H]3C(=O)NCCCCCCN(Cc4ccncc4)[C@@H]3C2)cc1` [NCGC00467216-01], the AC50 is 10.6 µM.

For `CCN1CCN(Cc2ccc(NC(=O)c3cc(NC(=O)c4cncc(-c5ccc(C#N)cc5)c4)cc(OC)c3)cc2C(F)(F)F)CC1` [MLS000911575-01], the AC50 amounted to 0.596 µM.

On to `COc1ccc2cc1Nc1ccc(cc1)C[C@H](NCc1cccc(C(=O)O)c1)C(=O)N(C)[C@H](C(=O)Nc1ccccc1OCc1ccccc1)C2` [NCGC00410264-01], for which the AC50 turned out to be 4.73 µM.

For the molecule `C=CCOC(=O)C1=C[C@@H](c2ccc(C(F)(F)F)cc2)[C@H](CCCO)[C@@H](OCC)O1` [MLS000766375-01], the AC50 came out at 7.5 µM.

For the molecule `CCCCCCSc1ccc([C@H]2N[C@@](Cc3ccccc3)(C(=O)OC)[C@H]3C(=O)N(CC)C(=O)[C@@H]23)cc1` [MLS001362744-01], the AC50 is 3.35 µM.

For `CC1=C(C(=O)Nc2ccccc2)C(c2cc(Br)ccc2F)n2ncc(C(=O)Nc3ccccc3)c2N1` (stereo not shown) [NCGC00126266-01], the half-maximal activity concentration (AC50) was determined as 1.68 µM.

In the case of `CCOc1cccc(C2c3[nH]c4ccccc4c3CCN2C(=O)CSCc2ccc(F)cc2)c1` (stereo not shown) [NCGC00134633-01], the AC50 is 15 µM.

With `Cc1cc(Nc2cccc(Cl)c2)nc(NCc2ccccc2)n1` [MLS000591844-01], the concentration at half-maximal activity (AC50) was found to be 8.41 µM.

In the case of `O=c1nc(C2CCN(S(=O)(=O)/C=C/c3ccccc3)CC2)[nH]c2c1nnn2Cc1ccc(F)cc1` [MLS001229566-01], the AC50 was found to be 13.3 µM.

As for `O=C(N[C@H](c1ccccn1)[C@H]1C[C@H](O)C1)c1cc(=O)n(-c2ccccc2)[nH]1` [NCGC00423856-01], the AC50 worked out at 9.44 µM.

Regarding `CCCCCCCn1c(NC(=O)CC)nc2ccccc21` [MLS001042192-01], the AC50 was 16.8 µM.

Consider `Cc1nc(-c2ccco2)cc([C@H]2CN3CC[C@H]2C[C@@H]3CNCc2ccccc2)n1` [NCGC00401513-01], for which the AC50 is 4.33 µM.

Regarding `CN(C)Cc1cc(C[C@@H]2C[C@H](NCc3ccccc3O)C2(C)C)no1` [NCGC00395458-01], the AC50 was 17.2 µM.

As to `c1ccc(-c2ccc3ncc(Nc4cccnc4)n3n2)cc1` [NCGC00412518-01], the AC50 is 4.85 µM.

With `COc1cc2c(cc1OCc1ccccc1)N([S+](=O)([O-])c1cccnc1)CC21CCN(C)CC1` [NCGC00419860-01], the concentration at half-maximal activity (AC50) amounted to 10.6 µM.

`Cc1ccc(Cl)cc1N1CCN(C(=O)c2ccc3c(c2)N(Cc2ccccc2F)C(=O)c2ccccc2[S+]3(=O)[O-])CC1` [NCGC00109582-01]: the AC50 came to 5.31 µM.

For the molecule `O=c1c2c([nH]c3ccccc13)CCCC2` [MLS000551004-01], the AC50 worked out at 6.68 µM.

For `CC(C)(C)n1[nH]c2c3c(ccc2c1=O)C(=O)c1ccccc1C3=O` [MLS000530323-01], the AC50 was determined as 4.73 µM.

In the case of `O=C1Nc2ccccc2CC12CCN2Cc1ccccn1` (stereo not shown) [NCGC00477299-01], the AC50 is 4.33 µM.

Take `COc1ccc(Nc2cc(C)c3cc(NC(=O)Cc4c(F)cccc4Cl)ccc3n2)cc1` [NCGC00124312-01]: the AC50 came out at 5.31 µM.

Take `COc1ccccc1N1CCN([C@H]2[C@@H]3OC[C@@H](O3)[C@@H](NCc3ccc(-c4ccccc4)cc3)[C@@H]2O)CC1` [NCGC00392675-01]: the AC50 turned out to be 15 µM.

With `CC(=O)NCCNC[C@@H]1C=C(C)[C@H](Cc2nnc(-c3ccccc3)o2)C[C@H]1C(C)C` [NCGC00395892-01], the AC50 was found to be 17.2 µM.

Turning to `CC(C)c1ccccc1NC(=O)Cn1cccc1-c1nc(-c2ccccc2)no1` [NCGC00445236-01], the AC50 amounted to 4.22 µM.

In the case of `Cc1ccc(NC(=O)N2CCC(OC3CCN([S+](C)(=O)[O-])CC3)CC2)cc1F` [NCGC00445040-01], the AC50 is 15 µM.

For the molecule `c1cnc(N2CCOCC2)c(OC2CCNC2)n1` (stereo not shown) [NCGC00434832-01], the half-maximal activity concentration (AC50) is 7.5 µM.

Turning to `CN1C(=O)C2(c3ccccc31)N(C)CC(c1ccccc1)C21SC(=S)N(Cc2ccco2)C1=O` (stereo not shown) [MLS000559203-01], the AC50 was found to be 13.3 µM.

Consider `COc1cccc(-c2nn3c(=O)cc(CN4CCN([S+](=O)([O-])c5ccc(C)cc5)CC4)nc3s2)c1` [NCGC00134088-01], for which the AC50 was found to be 8.41 µM.

As to `Cc1cc(C(F)(F)F)nn1CC(=O)NCCc1ncc(C)n1CC1CC1` [NCGC00469801-01], the AC50 is 10.6 µM.

Consider `O=C1NCc2ccccc2CC12CCCN(CC1=CCCCC1)C2` (stereo not shown) [NCGC00377566-01], for which the AC50 is 3.31 µM.

`O=C(NC1CC1)C1CCN(S(=O)(=O)c2ccc(Cl)cc2)CC1` [MLS001220436-01]: the AC50 is 13.3 µM.

With `CC(C)CNC(=O)C(C)(C)Oc1nn(CC2CC2)c2ccc(CN3CCCC3)cc12` [NCGC00419534-01], the AC50 worked out at 19.3 µM.

In the case of `Cc1ccccc1N(C(=O)c1snc(C(N)=O)c1N)C(C(=O)NCC1CCCO1)c1ccc(N(C)C)cc1` (stereo not shown) [MLS001218424-01], the AC50 is 7.5 µM.

As to `CCN1CCN(c2cc(C)c3cc(NC(=O)c4ccc(Br)o4)ccc3n2)CC1` [MLS000878990-01], the AC50 was found to be 6.68 µM.

Regarding `Cc1ccc(O)c(CN2CCN(c3ccccc3)CC2)c1` [MLS000084753-01], the AC50 stood at 2.99 µM.

As to `CCN(C(=O)CSc1nc(-c2ccc(C(C)C)cc2)no1)c1ccccc1` [NCGC00127904-01], the AC50 is 0.944 µM.

Turning to `CCn1cc(CN2CCC(N3CC(OCC4CC4)C34CCCCC4)CC2)cn1` (stereo not shown) [NCGC00463414-01], the AC50 turned out to be 8.41 µM.

For `O=C(CSc1nc(-c2ccccc2)no1)N1CCN(c2ccc(F)cc2)CC1` [NCGC00127880-01], the AC50 turned out to be 4.22 µM.

For `O=C(NC1=C(Nc2ccc(Cl)cc2)C(=O)c2ccccc2C1=O)c1ccccc1` [MLS000375030-01], the AC50 was 0.473 µM.
